Results published in patent US6376584B1, “Hydroxy-substituted N-alkoxy hindered amines and compositions stabilized therewith” (Ciba Specialty Chemicals Corporation, priority 1999, dated 2002).
Where two headings read alike, the source gives them in different places.

Test: pKa values by non-aqueous titration (half neutralization potential)
Format: physicochemical
Details: for HPN: 1:1 acetonitrile:chloroform, 0.1N perchloric acid/dioxane titrant
Procedure: In order to determine the pKa values of water insoluble materials, organic references with known pKa values in water are titrated non-aqueously. A plot of the half neutralization potential (HNP) versus the known aqueous pKa value of the reference material is established. The HNP of the test material is determined and extrapolated to find the corresponding pKa value of the test material. Such organic reference materials include 2,2,6,6-tetrarnethylpiperidine; 4-hydroxy-2,2,6,6-tetramethylpiperidine; 1-hydroxyethyl-4-hydroxy-2,2,6,6-tetramethylpiperidine; triacetoneamine and N-methylaniline.
The reference materials, which are structurally at least peripherally related to the instant test materials and are soluble in both water and 1:1 acetonitrile:chloroform, are used to make a calibration plot in the non-aqueous titration (1:1 acetonitrile:chloroform solvent and 0.1N perchloric acid/dioxane titrant) system. Approximately 0.5 milliequivalents of test material is weighed into a titration beaker. Thirty mL of acetonitrile is added to dissolve the sample. Prior to titration, 30 mL of chloroform is added. Titration is carried out and the HNP is determined. The electrolyte for the reference electrode is 2-(aminomethylpyridine. The electrode is allowed to stand in the solvent system for two hours after filling with the electrolyte to achieve equilibration. All samples are run in duplicate. The pKa values are seen in the table below.

[1] = extrapolated from HNP versus known aqueous pKa of reference materials
[2] = extrapolated from HNP versus known aqueous pKa of reference materials, read-out: Calculated pKa
[3] = pKa of the test hindered amine contained in the formulation, read-out: HALS pKa

Row | Compound | HPN [mv] | Calculated pKa [1] | pKa [2] | pKa [3]
1 | CC(C)(O)CON1C(C)(C)CC(OC(=O)CCCCCCCCC(=O)OC2CC(C)(C)N(OCC(C)(C)O)C(C)(C)C2)CC1(C)C [Example 2] | 513 | 3.8 |  | 
2 | CCCCCCCCCCCCCCCCCC(=O)OC1CC(C)(C)N(OCC(C)(C)O)C(C)(C)C1 [Example 73, 1-(2-Hydroxy-2-methylpropoxy)-4-octadecanoyloxy-2,2,6,6-tetramethylpiperidine] | 523 |  | 3.9 | 4
3 | CCCCCCCCCCCCCCCCCC(=O)OC1CC(C)(C)N(OC2CCCCC2)C(C)(C)C1 [II, 1-cyclohexyloxy-4-ocatadecanoyloxy-2,2,6,6-tetramethylpiperidine] | 436 | 4.9 |  | 

Second part, the molecule after the results:

Row | HPN [mv] | Calculated pKa [1] | pKa [2] | pKa [3] | Compound
4 |  |  | 4.6 | 4.6 | CCCCCCCCON1C(C)(C)CC(OC(=O)CCCCCCCCC(=O)OC2CC(C)(C)N(OCCCCCCCC)C(C)(C)C2)CC1(C)C [TINUVIN® 123, bis(1-octyloxy-2,2,6,6-tetramethylpiperidin-4-yl) sebacate]
5 |  |  |  | 9.1 | CC1(C)CC(OC(=O)CCCCCCCCC(=O)OC2CC(C)(C)NC(C)(C)C2)CC(C)(C)N1 [TINUVIN® 770, bis(2,2,6,6-tetramethylpiperidin-4-yl) sebacate]
